Results taken from patent publication US4555572A, “Pyrazolo[3,4,5-kl]acridine compositions and methods for their production and use” (Warner-Lambert Company, priority 1984, dated 1985).
Where a name gives a salt, the structure may show the parent alone. Read-outs that look alike come from different tables or passages of the source.

Assays:
L1210 cells = test: PDC test, L1210 cell growth; type: cell-based, murine; conditions: Mus musculus, read-out: PDC ID50
Experimental: (c) Another test protocol is the PDC test. L1210 cells, a murine leukemia cell line, were grown in RPMI 1640 supplemented with 10% fetal bovine serum and genamicin (50 μg/ml). Drug dilutions were prepared in the appropriate solvent and 20 μl of each dilution were added to 24-well Linbro tissue culture plates followed by the addition of 2.0 ml of cell suspension containing 3×10^4 cells per ml. Solvent and medium controls were included in each test. After incubation at 37° C. for three days in 5% CO2 in air, the contents of each well were removed and the cells counted in a ZBI Coulter counter. Per cent growth was calculated relative to the controls and the levels of drug activity were expressed as ID50 in terms of molarity (M).

Alcaligenes viscolactis = test: in vitro antibacterial (ABMF) microdilution susceptibility test; type: cell-based; conditions: read-out: ABMF Test M.I.C. A. visc.
Description: (§1) (d) Still another test protocol is the in vitro antibacterial (ABMF) test which is a recognized standard microdilution susceptibility procedure in Mueller-Hinton broth against gram-positive and gram-negative bacterial test organisms. The procedure is a modification of a state-of-the-art procedure reported in Manual of Clinical Microbiology, Lennette, E. H., ed., by Barry, A. L. and C. Thornsberry at pages 463-474 and by Gavan, T. L. and A. L. Barry at pages 459-462, American Society for Microbiology, Washington, 1980.
(§2) In the test, a given bacterial culture is used to inoculate individaul test wells of microdilution trays containing growth medium and test compound, the latter in a microdilution series: 1000, 333, 111, 37, 12, 4, 1.4, and 0.46 micrograms per milliliter. […] For convenience, values are reported for Escherichia coli, Branhamella catarrhalis, Alcaligenes viscolactis, Streptococcus pneumoniae, and Bacillus cereus

Bacillus cereus = test: as above; type: cell-based; conditions: read-out: ABMF Test M.I.C. B. cere.
Description: as §1, §2

Branhamella catarrhalis = test: as above; type: cell-based; conditions: Moraxella catarrhalis, read-out: ABMF Test M.I.C. B. cata.
Description: as §1, §2

Escherichia coli = test: as above; type: cell-based; conditions: read-out: ABMF Test M.I.C. E. coli
Description: as §1, §2

Streptococcus pneumoniae = test: as above; type: cell-based; conditions: read-out: ABMF Test M.I.C. S. pneu.
Description: as §1, §2

[1] = system: lymphocytic leukemia P388; test: in vivo lymphocytic leukemia P388 test; design: species or system CD2 F1 mice; conditions: Mus musculus, P388, ip, 120 h, intraperitoneally once daily for five days, read-out: P388 in vivo T/C × 100
Experimental: Another test protocol is the in vivo lymphocytic leukemia P388 test. The animals used are either male or female CD2 F1 mice, six or seven animals per test group. The tumor transplant is by intraperitoneal injection of dilute ascitic fluid containing cells of lymphocytic leukemia P388. The test compounds are administered intraperitoneally once daily for five consecutive days at various doses following tumor inoculation. The animals are weighed and survivors are recorded on a regular basis for 30 days. A compound is designated "toxic" if, at a given dose, all animals died prior to four days after the first injection of drug. A ratio of survival time for treated (T)/control (C) animals is calculated. A criterion for efficacy is a ratio T/C times 100 greater than or equal to 125. See Cancer Chemotherapy Reports, Part 3, 3, 1 (1972) for a comprehensive discussion of the protocol.

HCT-8 cells = test: in vitro proliferating human colon adenocarcinoma (HCA) cell screen, HCT-8; type: cell-based; conditions: HCT-8 cells, 60 to 65 hours, ED50, read-out: HCA ED50 Avg.
Experimental: (a) One test protocol is the in vitro proliferating human colon adenocarcinoma (HCA) cell screen. In this test, HCT-8 cells (HCA cell line received from Yale University) are trypsinized using trypsin-EDTA. A single cell suspension is achieved by passing the cells through a 26 gauge needle with a 20-cc syringe. A cell suspension is prepared using RPMI 1640+10% FCS+50 μg/ml gentamicin sulfate with a cell concentration is approximately 30,000 cells/ml. The cell suspension is dispensed in Linbro 24-well plates; 1 ml/well. The plates are incubated for approximately 48 hours at 37° C. in a 5% CO2 atmosphere. At this time test compounds are added in the appropriate concentration. Five μl of the 200 μg/ml stock solution is added to each well in a primary test. […] of the appropriate dilution is added to each well for a titration test. The plates are reincubated an additional 60 to 65 hours at 37° C. in a 5% CO 2 atmosphere. The cells are lysed using a mix of cationic surfactant, glacial acetic acid, and sodium chloride. Two ml of the lysed cell suspension from each well is added to 8 ml of diluent. The number of nuclei is determined using a Coulter counter (ZBI model), and a percent growth for each drug concentration is calculated. From this, and ID50 (molar concentration of compound that results in 50% inhibition of growth) is determined.

[2] = Mueller-Hinton broth, 37° C., 16-24 hours

IC50 (L1210 cells; 72 h, L1210 cells, three days) [nM] | MIC (Alcaligenes viscolactis; [2]) [µg/mL] | MIC (Bacillus cereus; [2]) [µg/mL] | MIC (Branhamella catarrhalis; [2]) [µg/mL] | MIC (Escherichia coli; [2]) [µg/mL] | MIC (Streptococcus pneumoniae; [2]) [µg/mL] | Compound | response vs control in vivo at 12.5 mg/kg [1] [%] | IC50 (L1210 cells; L1210, 72 h) [nM] | MIC (Alcaligenes viscolactis) [µg/mL] | MIC (Bacillus cereus) [µg/mL] | MIC (Branhamella catarrhalis) [µg/mL] | MIC (Escherichia coli) [µg/mL] | MIC (Streptococcus pneumoniae) [µg/mL] | other results
3.2 | < 0.46 | < 0.46 | 1.4 | 4.1 | < 0.46 | CCOC(=O)Oc1ccc2c(c1)-c1nn(CCN(CC)CC)c3ccc([N+](=O)[O-])c(c13)N2 [Example 32, [2-[2-(Diethylamino)ethyl]-2,6-dihydro-5-nitropyrazolo [3,4,5-kl]acridin-9-yl]carbonic acid ethyl ester, methanesulfonate (salt) (1:1)] | – | – | – | – | – | – | – | response vs control in vivo at 3.12 mg/kg ([1]; 3.12 mg/kg): 208%; response vs control in vivo at 6.25 mg/kg [1]: 168%
210 | < 0.46 | 1.4 | < 0.46 | 1.4 | < 0.46 | CCNCCn1nc2c3c(c([N+](=O)[O-])ccc31)Nc1ccc(OC)cc1-2 [Example 36, N-Ethyl-9-methoxy-5-nitropyrazolo[3,4,5-kl]acridine-2(6H)-ethanamine, 1.25 methanesulfonate salt (4:5), hemihydrate] | 169 | – | – | – | – | – | – | IC50 (HCT-8 cells): 120 nM; response vs control in vivo at 25 mg/kg [1]: 160%; response vs control in vivo at 50 mg/kg [1]: 223%
600 | 1.4 | 12.3 | 12.3 | 12.3 | 1.4 | CN(C)CCn1nc2c3c(c([N+](=O)[O-])ccc31)Nc1ccc(N(C)C)cc1-2 [Example 39, 9-(Dimethylamino)-N,N-dimethyl-5-nitropyrazolo[3,4,5-kl]acridine-2(6H)-ethanamine, methanesulfonate (1:2), dihydrate] | 164 | – | – | – | – | – | – | response vs control in vivo at 6.25 mg/kg [1]: 126%; response vs control in vivo at 25 mg/kg [1]: 189%
1300 | < 0.46 | 4.1 | 4.1 | 1.4 | < 0.46 | CCN(CC)CCCn1nc2c3c(c([N+](=O)[O-])ccc31)Nc1ccc(OC)cc1-2 [Example 43, N,N-Diethyl-9-methoxy-5-nitropyrazolo[3,4,5-kl]acridine-2(6H)-propanamine, methanesulfonate, hydrate (1:1)] | 184 | – | – | – | – | – | – | response vs control in vivo at 6.25 mg/kg [1]: 165%; response vs control in vivo at 50 mg/kg [1]: 202%
1.9 | < 0.46 | < 0.46 | < 0.46 | < 0.46 | < 0.46 | CC(=O)Oc1ccc2c(c1)-c1nn(CCCN(C)C)c3ccc([N+](=O)[O-])c(c13)N2 [Example 47, 2-[3-(Dimethylamino)propyl]-5-nitropyrazolo[3,4,5-kl]acridin-9-ol, acetate (ester), methanesulfonate (salt) (1:1)] | – | – | – | – | – | – | – | response vs control in vivo at 0.39 mg/kg ([1]; 0.39 mg/kg): 144%; response vs control in vivo at 0.78 mg/kg [1]: 178%
9.8 | 0.46 | 333 | 1.4 | 3.7 | 4.1 | CN(C)CCCn1nc2c3c(c([N+](=O)[O-])ccc31)Nc1ccc(OC(=O)C(C)(C)C)cc1-2 [Example 48, 2-[3-(Dimethylamino)propyl]-5-nitropyrazolo[3,4,5-kl]acridin-9-ol, 2,2-dimethylpropanoate (ester), methanesulfonate (salt) (1:1)] | – | – | – | – | – | – | – | response vs control in vivo at 0.78 mg/kg [1]: 175%; response vs control in vivo at 1.56 mg/kg ([1]; 1.56 mg/kg): 263%
– | – | – | – | – | – | CCN(CC)CCn1nc2c3c(c([N+](=O)[O-])cc([N+](=O)[O-])c31)Nc1ccc(O)cc1-2 [Example 49, 2-[2-(Diethylamino)ethyl]-2,6-dihydro-3,5-dinitropyrazolo[3,4,5-kl]acridin-9-ol, methanesulfonate, hemihydrate] | – | 6.8 | < 0.46 | < 0.46 | < 0.46 | < 0.46 | < 0.46 | –
– | – | – | – | – | – | CCOc1ccc2c(c1)-c1nn(CCN(CC)CC)c3c([N+](=O)[O-])cc([N+](=O)[O-])c(c13)N2.CS(=O)(=O)O.O [Example 51, 9-Ethoxy-N,N-diethyl-3,5-dinitropyrazolo[3,4,5-kl]acridine-2(6H)-ethanamine, methanesulfonate, hydrate] | – | 380 | < 0.46 | 333 | 333 | > 1000 | 111 | –
– | – | – | – | – | – | CCN(CC)CCn1nc2c3c(c([N+](=O)[O-])cc([N+](=O)[O-])c31)Nc1ccc(OCc3ccc(OC)cc3)cc1-2.CS(=O)(=O)O [Example 53, N,N-Diethyl-9-[(4-methoxyphenyl)methoxy]-3,5-dinitropyrazolo[3,4,5-kl]acridine-2(6H)-ethanamine, methanesulfonate (1:1)] | – | 6.8 | < 0.46 | < 0.46 | < 0.46 | < 0.46 | < 0.46 | –
– | – | – | – | – | – | COc1ccc2c(c1)-c1nn(CCCN(C)C)c3c([N+](=O)[O-])cc([N+](=O)[O-])c(c13)N2.CS(=O)(=O)O [Example 55, N,N-Dimethyl-3,5-dinitro-9-methoxypyrazolo[3,4,5-kl]acridine-2(6H)-propanamine, methanesulfonate (1:1)] | – | 220 | < 0.46 | < 0.46 | < 0.46 | < 0.46 | < 0.46 | –

Compound | IC50 (L1210 cells; 72 h, L1210 cells, three days) [nM] | MIC (Alcaligenes viscolactis; [2]) [µg/mL] | MIC (Bacillus cereus; [2]) [µg/mL] | MIC (Branhamella catarrhalis; [2]) [µg/mL] | MIC (Escherichia coli; [2]) [µg/mL] | MIC (Streptococcus pneumoniae; [2]) [µg/mL] | response vs control in vivo at 12.5 mg/kg [1] [%] | IC50 (L1210 cells; L1210, 72 h) [nM] | MIC (Alcaligenes viscolactis) [µg/mL] | MIC (Bacillus cereus) [µg/mL] | MIC (Branhamella catarrhalis) [µg/mL] | MIC (Escherichia coli) [µg/mL] | MIC (Streptococcus pneumoniae) [µg/mL] | other results
CCN(CC)CCn1nc2c3c(c([N+](=O)[O-])ccc31)Nc1ccc(N(C)C)cc1-2.CS(=O)(=O)O.CS(=O)(=O)O [Example 33, 9-(Dimethylamino)-N,N-diethyl-5-nitropyrazolo[3,4,5-kl]acridine-2(6H)-ethanamine, methanesulfonate (1:2)] | 900 | 1.4 | 37 | 12.3 | 37 | 1.4 | 127 | – | – | – | – | – | – | IC50 (HCT-8 cells): 320 nM; response vs control in vivo at 25 mg/kg [1]: 158%
